# Reference: US20250020635A1, “ASSAY METHODS AND USES THEREOF FOR SCREENING ALZHEIMER'S DISEASE TREATMENT COMPOUNDS” (priority 2023, published 2025)
# How the values were obtained:
# [1] = target: T1, His-PLCγ2 protein (Homo sapiens, UniProt P16885); assay: Affinity selection mass spectrometry (ASMS); format: binding; details: dose range 100-0.05 μM, PLCγ2 400 nM
# T1 sequence (P16885 1-1265): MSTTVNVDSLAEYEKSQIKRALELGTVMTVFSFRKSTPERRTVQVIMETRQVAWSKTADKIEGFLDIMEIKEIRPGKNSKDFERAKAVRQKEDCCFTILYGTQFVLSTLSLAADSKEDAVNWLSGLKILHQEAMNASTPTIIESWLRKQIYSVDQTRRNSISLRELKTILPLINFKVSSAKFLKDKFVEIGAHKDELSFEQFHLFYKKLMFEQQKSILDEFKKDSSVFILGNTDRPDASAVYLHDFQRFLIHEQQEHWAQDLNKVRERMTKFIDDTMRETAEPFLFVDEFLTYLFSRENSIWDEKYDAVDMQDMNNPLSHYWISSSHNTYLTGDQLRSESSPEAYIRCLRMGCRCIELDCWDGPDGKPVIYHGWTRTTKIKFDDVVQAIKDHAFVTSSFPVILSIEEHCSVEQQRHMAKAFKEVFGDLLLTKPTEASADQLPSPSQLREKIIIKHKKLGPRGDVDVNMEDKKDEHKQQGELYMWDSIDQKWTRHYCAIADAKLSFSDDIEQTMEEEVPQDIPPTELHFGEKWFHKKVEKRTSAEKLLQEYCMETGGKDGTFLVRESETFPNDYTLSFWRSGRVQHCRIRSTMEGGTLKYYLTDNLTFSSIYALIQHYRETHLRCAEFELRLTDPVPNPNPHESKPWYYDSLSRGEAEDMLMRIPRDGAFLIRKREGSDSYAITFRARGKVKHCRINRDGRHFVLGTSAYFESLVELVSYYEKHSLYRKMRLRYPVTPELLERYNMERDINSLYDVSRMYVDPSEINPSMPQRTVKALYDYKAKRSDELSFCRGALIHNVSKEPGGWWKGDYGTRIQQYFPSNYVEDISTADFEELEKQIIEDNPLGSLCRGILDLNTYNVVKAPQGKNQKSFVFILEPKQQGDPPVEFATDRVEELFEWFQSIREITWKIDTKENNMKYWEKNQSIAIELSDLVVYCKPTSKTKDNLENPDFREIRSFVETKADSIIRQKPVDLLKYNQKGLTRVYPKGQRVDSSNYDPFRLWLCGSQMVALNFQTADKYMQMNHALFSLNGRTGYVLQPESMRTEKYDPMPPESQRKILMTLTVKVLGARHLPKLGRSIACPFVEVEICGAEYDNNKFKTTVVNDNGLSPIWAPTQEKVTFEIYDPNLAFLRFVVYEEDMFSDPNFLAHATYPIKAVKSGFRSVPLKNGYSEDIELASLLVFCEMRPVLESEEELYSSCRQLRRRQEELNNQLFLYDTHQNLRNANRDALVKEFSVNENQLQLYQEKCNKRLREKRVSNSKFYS
# Procedure: Using a dose range of 100-0.05 μM in 384 well low-volume polypropylene microtiter plates, a solution of PLCγ2 (final concentration 400 nM) was transferred to biochip arrays functionalized with a Tris-Ni-NTA-presenting self-assembled monolayer to immobilize the His-tagged protein. The arrays were incubated for 90 min in a humidified chamber to prevent evaporation and allow for specific immobilization of the His-PLCγ2 protein, along with any bound small molecules. The arrays were purified by a rapid <3 second gentle wash step with deionized ultra-filtered water and dried with compressed air. ASMS was performed using the reflector positive mode on an Aβ Sciex TOF-TOF 5800 System (Aβ Sciex, Framingham, MA).
# [2] = Kinetic solubility in pH 7.4 phosphate buffer; format: physicochemical
# Procedure: (§1) Physicochemical and ADME properties were determined using the following assays: microsomal stability intrinsic clearance (Clint) in mouse liver microsomal solution, MDCK permeability (Papp), protein binding (fu) in mouse plasma, and kinetic solubility in pH 7.4 phosphate buffer (Table 7).
# [3] = tested on: HiBit only; assay: Cellular thermal shift assay (CETSA), HiBit only control; format: cell-based, human; details: for HiBit only %, percent luminescence at highest dose with HiBit only compared to control (DMSO): 100 μM
# [4] = Microsomal stability intrinsic clearance; format: in vitro ADME; details: mouse liver microsomes
# Procedure: as §1
# [5] = tested on: MDCK; assay: MDCK permeability; format: in vitro ADME; details: estimate of intestinal absorption
# Procedure: as §1
# [6] = Protein binding in mouse plasma; format: in vitro ADME
# Procedure: as §1
Structure (SMILES),"target engagement, signal against background [1]",Kinetic solubility [2],"HiBit only %, percent luminescence at highest dose with HiBit only compared to control (DMSO) [3]","HiBit only % @100 μM ([3]; Table 1, @100 μM)","Clint, intrinsic clearance [4]","Papp, MDCK permeability [5]","fu, fraction unbound [6]"
"Cc1cc(C)c(S(=O)(=O)Nc2ccccc2C(F)(F)F)c(C)c1 [Compound 2, o-3M3FBS, reference compound]",neither 1 or 2 indicated substantial evidence of target engagement,–,–,–,–,–,–
"Cc1cc(C)c(S(=O)(=O)Nc2cccc(C(F)(F)F)c2)c(C)c1 [Compound 1, 2,4,6-trimethyl-N-(meta-3-trifluoromethyl-phenyl)-benzenesulfonamide, reference compound]",neither 1 or 2 indicated substantial evidence of target engagement,21 to 40 µM,–,–,–,–,–
O=S(=O)(Nc1ccc(Br)cc1F)c1cccs1 [Compound 8],–,>100 µM,44%,44%,77.83 µL/min/mg,95.0 ×10−^6 cm/s,0.0193
Cc1cc(C)c(S(=O)(=O)NC2CCCNC2)c(C)c1 (stereo not shown) [Compound 11],–,–,93%,–,–,–,–
